Consider eight compounds from PubChem BioAssay (NCI).

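These data come from cells grown in 96-well plates and exposed to compound for 48 hours at five concentrations. GI50 = concentration required for 50% inhibition of growth. TGI denotes the concentration required for complete inhibition of growth.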 Where only a bound is given, the exact number is not on record here.

Test in all cases: NCI tumour cell line growth inhibition, 48 h
For assay [1], the system named is COLO 205 colon.
Assay [2] deals with K-562 leukemia.
Assay [3] deals with KM12 colon.
In assay [4] the test system is LOX IMVI melanoma.
In assay [5] the test system is NCI-H522 lung.
Assay [6] relates to OVCAR-8 ovarian.
Assay [7] deals with SF-539 CNS.
In assay [8] the test system is SN12C renal.
Assay [9] relates to SW-620 colon.
Assay [10] relates to UO-31 renal.

As for `CCN1CCN(C(=O)[C@@]2(C)CC[C@]3(C)CC[C@]4(C)C(=CC(=O)[C@@H]5[C@@]6(C)CC[C@H](OC7C[C@@H](O)[C@@H](O)C(C)O7)C(C)(C)[C@@H]6CC[C@]54C)[C@@H]3C2)CC1` (stereo not given in full), the GI50 in [1] is 9.13 µM; in [2], 1.08 µM; in assay [3], 2.74 µM; in [4], 1.01 µM; in assay [5], 1.59 µM; in [6], 1.62 µM. Also, the GI50 in assay [7] is 0.937 µM; in assay [8], 0.896 µM; in assay [9], 1.7 µM; in assay [10], 0.757 µM. For the same compound, the TGI in assay [1] is 20.6 µM; in assay [2], 2.66 µM; in [3], 9.95 µM; in assay [4], 2 µM; in assay [5], 6.15 µM; in [6], 6.82 µM. Also, the TGI was found to be 1.85 µM in assay [7], 1.83 µM in assay [8], 6.36 µM in assay [9] and 1.53 µM in assay [10].
As for `c1ccc(-c2nnc(-c3ccccn3)s2)nc1`, the GI50 in [1], in assay [2], in [3], in assay [4], in assay [5] and in [6] was above 100 µM throughout. The GI50 in [7] is above 100 µM; in assay [8] it was above 100 µM; in assay [9] it was above 100 µM; in assay [10] it was 22.3 µM. Besides, the TGI in [1], in [2], in assay [3], in [4], in assay [5] and in assay [6] was above 100 µM each time. Further, the TGI in [7], in [8], in [9] and in assay [10] was above 100 µM in each case.
With `COc1ccc(Sc2[nH]c(C(C)=O)c3ccccc23)cc1`, the GI50 in assay [1] was 0.174 µM; in assay [2] it was 2.65 µM; in assay [3], 6.49 µM; in assay [4], 11.8 µM; in assay [5], 10.2 µM; in [6], 16.4 µM. Also, the GI50 in [7] was 14.5 µM; in [8] it was 11 µM; in assay [9], 12.5 µM; in assay [10], 5.84 µM. Besides, the TGI was found to be 0.398 µM in assay [1]; 14.7 µM in assay [2]; 19.7 µM in [3]; 24.4 µM in assay [4]; 36.1 µM in assay [5]; 36.8 µM in assay [6]. Besides, the TGI is 27.6 µM in [7], 24.7 µM in assay [8], 26.8 µM in [9] and 23.4 µM in assay [10].
For `Nc1nc(Cl)cc(NCCCCCCCCNc2cc(Cl)nc(N)n2)n1`, the TGI in assay [1] was above 100 µM; in assay [2], above 100 µM; in [3] it was 56.9 µM; in assay [4], 34.7 µM; in assay [5], 37.2 µM; in assay [6], 58.6 µM. Moreover, the TGI in [7], in assay [8], in [9] and in assay [10] was above 100 µM each time.
Regarding `CCOC(=O)C1=CN(C)C=C(C(=O)OCC)C1c1cc(Br)c(OCC)c(OC)c1`, the GI50 in [1] is 68.7 µM; in [2] it was above 100 µM; in [3], 35 µM; in assay [4], above 100 µM; in assay [5], above 100 µM; in assay [6], above 100 µM. Besides, the GI50 was above 100 µM in assay [7], above 100 µM in [8], 67.2 µM in assay [9] and 39.9 µM in assay [10]. The TGI in assay [1], in assay [2], in [3], in assay [4], in [5] and in assay [6] was above 100 µM throughout. The TGI in assay [7], in assay [8], in [9] and in assay [10] was above 100 µM each time.
Consider `CC(=O)Nc1ccc(S(=O)(=O)N2C(=O)CCC2C(=O)Nc2ccc(Br)cc2)cc1` (stereo not given), for which the GI50 is 3.01 µM in assay [1]; 1.95 µM in assay [2]; 1.82 µM in assay [3]; 0.972 µM in [4]; 1.06 µM in [5]; 2.6 µM in [6]. The GI50 in [7] was 2.45 µM; in assay [8], 2.79 µM; in assay [9], 3.19 µM; in assay [10], 1.38 µM. For the same compound, the TGI in assay [1] was found to be 11.7 µM; in assay [2], 10.7 µM; in assay [3] it was 13.7 µM; in [4], 7.39 µM; in assay [5], 3.6 µM; in [6], 11.9 µM. Besides, the TGI in assay [7] was found to be 6.78 µM; in [8] it was 36 µM; in assay [9], 27.6 µM; in assay [10], 8.21 µM.
For `COc1ccc(OC)c2c1[nH]c(=O)c1c3ccccc3cn21`, the GI50 in assay [1] is 1.2 µM; in assay [2], 0.692 µM; in [3], 1.29 µM; in assay [4], 1.4 µM; in [5], 1.7 µM; in [6], 1.26 µM. In addition, the GI50 in assay [7] was 1.69 µM; in assay [8] it was 1.23 µM; in assay [9], 0.59 µM; in assay [10], 1.11 µM. Besides, the TGI in assay [1] was determined as 2.79 µM; in assay [2], 3.12 µM; in assay [3] it was 2.89 µM; in assay [4], 2.88 µM; in [5] it was 3.48 µM; in assay [6], 3.36 µM. In addition, the TGI was found to be 3.08 µM in [7], 2.58 µM in assay [8], 2.11 µM in [9] and 2.38 µM in assay [10].
Turning to `Cc1cn2c(=O)c3ncn(C4OC(CO)C(O)C4O)c3n(C)c2n1` (stereo not given), the TGI in [1], in assay [2], in assay [3], in assay [4], in assay [5] and in assay [6] was above 100 µM in each case. The TGI in assay [7], in assay [8], in assay [9] and in assay [10] was above 100 µM throughout.
